Calls of active or inactive are those of the source. No cut-off for these calls is given here.
What was measured:
[1] = tested on: Human immunodeficiency virus 1; experiment: Antiviral activity against HIV1 bearing HIV1 NL4-3 envelope infected in human HeLa CD4 cells coexpressing LTR/beta-Gal gene assessed as reduction in virus-induced beta-galactosidase reporter gene activity after 72 hrs by single-cycle infection assay; assay type: functional, organism-based; conditions: Human immunodeficiency virus 1, HeLa
[2] = tested on: Human immunodeficiency virus 1; experiment: Inhibition of HIV1 NL4-3 proteins incorporation into virions transfected in HEK293 cells assessed as aberrant Env protein at 0.12 uM by Western blot; assay type: functional, organism-based
[3] = tested on: Human immunodeficiency virus 1; experiment: Antiviral activity against HIV1 bearing VSV envelope infected in human MT2 cells assessed as inhibition of VSV-envelope packed virions at 0.12 uM after 72 hrs by virus production assay relative to control; assay type: functional; conditions: Human immunodeficiency virus 1, MT2, 72 h
[4] = tested on: Human immunodeficiency virus 1; experiment: Antiviral activity against HIV1 NL4-3 transfected in HEK293 cells assessed as inhibition of infectious virus production at 0.12 uM; assay type: functional; parameters: scale not given: the % may be the effect or the level left
[5] = tested on: Human immunodeficiency virus 1; experiment: Antiviral activity against HIV1 bearing HIV1 NL4-3 envelope infected in human MT2 cells assessed as inhibition of HIV-envelope packed virions at 0.12 uM after 72 hrs by virus production assay relative to control; assay type: functional; conditions: Human immunodeficiency virus 1, MT2, 72 h
[6] = tested on: Human immunodeficiency virus 1; experiment: Inhibition of HIV1 NL4-3 proteins incorporation into virions transfected in HEK293 cells assessed as unprocessed gp160 Env protein at 0.12 uM by Western blot; assay type: functional, organism-based
[7] = tested on: Human immunodeficiency virus 1; experiment: Antiviral activity against HIV1 bearing VSV envelope infected in human HeLa CD4 cells coexpressing LTR/beta-Gal gene assessed as reduction in virus-induced beta-galactosidase reporter gene activity after 72 hrs by single-cycle infection assay; assay type: functional, organism-based; conditions: Human immunodeficiency virus 1, HeLa

Q: Which results are given for `Cc1c(O)cccc1C(=O)N[C@@H](CSc1ccccc1)[C@H](O)CN1C[C@H]2CCCC[C@H]2C[C@H]1C(=O)NC(C)(C)C` [NELFINAVIR]?
A: EC50 [1]: > 1000 nM; Activity [2]: Active; inhibition in vivo at 0.12 µM [3]: 97%; Activity [4]: 94%; inhibition in vivo at 0.12 µM [5]: 88%; Activity [6]: Active; EC50 [7]: > 1000 nM
